Data set [1] can be described thus: Particle size after the grinding process. In kind it is physicochemical. The following applies: micronized by the grinding process. Here is the method:
For example, Polysorbate 80 is weighed into a polypropylene bottle, and an initial amount of sterile water for injection, USP, is weighed into the bottle. Next, Methoxy-X04 is weighed and added to the bottle. The current batch weight is determined, and the final amount of sterile water for injection to adjust the formulation to a final batch weight is added. Then, the YTZ grinding media is added to the bottle, and the bottle is placed on a roller mill for a minimum of 12 hours at a setting of 50%.
After the milling process, a polishing filter and Masterflex tubing are connected to the bottom of a Millipore housing assembly, while a high-pressure hose is attached to the top of the Millipore housing. Using a nitrogen pressure gauge, the solution is pushed thorough the housing and the polish filter. For example, the pressure used is between 3 psi and 5 psi. This grinding process yields micronized Methoxy-X04 having a mean particle size of 1.157 μm with 100% of particles smaller than 10 μm and greater than 75% of particles smaller than 5 μm. Thus, those skilled in the art will recognize that this exemplary milling process produces Methoxy-X04 particles that are suitable for either topical or parenteral formulation, without requiring the use of solvents, such as dimethyl sulfoxide, that are incompatible with use in drug formulations.

The conditions of data set [2]: cited from earlier work.
The nature of data set [3]: Solubility in water and in ophthalmic carriers. Type of data set: physicochemical. The source says: Specifically, a mixture of approximately 85% petrolatum and 15% mineral oil is a suitable carrier. […] The petrolatum in this ophthalmic formulation can act as a carrier for a combination of dissolved and suspended Methoxy-X04, by altering the aqueous portions of the eye to accept the compound more readily by adding lipophilic material to the solution of the eye's environment and by altering the interactions of the eye with the compound by shielding it from the aqueous environment.
Hydroxypropyl methylcellulose can act in part as a carrier of microparticles in suspension for a mixture of dissolved and suspended Methoxy-X04. This effect occurs by altering the aqueous portions of the eye to enable them to accept the hydrophobic compounds more readily, by adding lipophilic material to the eye's environment and/or by altering the interactions of the compound with the eye by shielding the hydrophobic compound from the aqueous environment.
X34 (Formula II) is a ligand molecule that is derived from Congo Red by replacing the naphthalene sulfonic acids with salicylic acids and the azo linkage with an ethenyl link. […] At room temperature, X34 is a yellow powder, which fluoresces upon exposure to UV light. The logPoct for X34 is 0.42. […] Preferably, ophthalmic formulations containing X34 (or other hydrophilic compounds of Formula I) have LogD values of between 1 and 3.

The conditions of data set [4]: injected into the tail; ex vivo 2-photon fluorescent microscopy; cited from earlier work.
The subject of the next data set is Aβ plaques. The following applies: in vivo animal models and ex vivo human tissue (CR: Aβ aggregations); cited from earlier work.
The target in a further data set is T1, Aβ(1-40) (Homo sapiens, UniProt P05067).
T1 construct: Aβ(1-40)
The following applies: * = compound only partially soluble at this concentration, cited from earlier work.

The conditions of data set [5]: pH 7.4; cited from earlier work.
Data set [6] in a line: Octanol-water partition coefficient. In kind it is physicochemical. The following applies: pH 7.4. The source says:
Those skilled in the art will recognize that the hydrophobicity and hydrophilicity of a substance can be measured using the octanol-water partition coefficient (“Poct” or “Kow”), for compounds whose solubility is not altered by the pH and ionic characteristic of the solute, or LogD value, for compounds whose solubility is altered by the pH and ionic characteristic of the solute. LogD is the logarithm of the distribution coefficient, which is the ratio of the sum of the concentrations of all species of a compound in octanol to the sum of the concentrations of all species of the compound in water.
In these contexts, hydrophobicity is related to factors such as absorption, bioavailabity, hydrophobic drug-receptor interactions, metabolism, and/or toxicity. As used herein, the logPoct is synonymous to logKow, and both measurements are used interchangeably herein. Likewise, logPoct is a functionally equivalent measure to LogD; both values reflect the degree of solubility of a given compound.

Setting [7] is: given as Inact, tested at 10 μm.

SMILES strings stand for the structures. Read-outs that look alike come from different tables or passages of the source.

In general, Ki refers to a measure of affinity in units of concentration, obtained from inhibition or displacement.

T1 sequence (P05067 672-711 limits assumed): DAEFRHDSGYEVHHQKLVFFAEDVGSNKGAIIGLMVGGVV

As to `COc1cc(/C=C/c2ccc(O)cc2)ccc1/C=C/c1ccc(O)cc1` [2-CH3O-X:E:B04], in data set [1], the mean particle size worked out at 1.157 μm, the “particles smaller than 5 μm” value is listed as “greater than 75%” and the “particles smaller than 10 μm” value is 100%. For the same molecule, the “Oral rat LD50” value in data set [2] was around 15000 mg/kg. In addition, the solubility in water result in data set [3] is “insoluble”. Moreover, the “state in carrier at 10 mg/gm” value in data set [3] (10 mg/gm of carrier, petrolatum and mineral oil) is listed as “remains primarily in suspension”. Further, in data set [3] (0.1% (1 mg per gm carrier), aqueous formulation with hydroxypropyl methylcellulose), the “state in carrier at 0.1%” value was “remains in solution”. In addition, the “state in carrier at 0.1%” value in data set [3] (0.1% (1 mg per gm of carrier), about 85% petrolatum and 15% mineral oil) is on record as “remains in solution”. Also, in data set [4], the “detection in the lens” value was “could be detected in the supranuclear region of the lens”. The “binding to Aβ plaques / aggregations” value in the data set on Aβ plaques was “selectively binds to Aβ plaques”. Besides, the inhibition constant (Ki) on Aβ(1-40) ([3H]CG binding to Aβ(1-40)) was 27 nM.

`COc1ccc(/C=C/c2ccc(/C=C/c3ccc(OC)cc3)c(OC)c2)cc1` [2′-CH3O-X:E:B04 bis(4-methoxy)]: the inhibitory constant (Ki) at Aβ(1-40) (setting [7]) is above 10000 nM.

With `Oc1ccc(/C=C/c2ccc(/C=C/c3ccc(O)cc3)c(O)c2)cc1` [2′-HO-X:E:B04], the Ki on Aβ(1-40) ([3H]CG binding to Aβ(1-40)) was 9 nM.

In the case of `COc1ccc(/C=C/c2ccc(/C=C/c3ccc(OC)cc3)c(O)c2)cc1` [2′-HO-X:E:B04bis(4-methoxy)], the Ki at Aβ(1-40) (setting [7]) was above 10000 nM.

`O=C(O)c1cc(/N=N/c2ccc(-c3ccc(/N=N/c4ccc(O)c(C(=O)O)c4)cc3)cc2)ccc1O` [CG, Chrysamine G]: in data set [5], the logPoct is reported as 1.8 and the “octanol-water partition coefficient (Poct)” value is 60. In addition, the “Poct of CG relative to CR” value in data set [6] is recorded as around 100 fold.

For `Nc1c(/N=N/c2ccc(-c3ccc(/N=N/c4cc(S(=O)(=O)O)c5ccccc5c4N)cc3)cc2)cc(S(=O)(=O)O)c2ccccc12` [CR, Congo Red], in data set [5], the logPoct is 0.18 and the “octanol-water partition coefficient (Poct)” value is 0.7. In addition, the “binding to Aβ plaques / aggregations” value in the data set on Aβ plaques is recorded as “selectively binds to Aβ aggregations with high affinity”.

For the molecule `COc1ccc(/C=C/c2ccc(/C=C/c3ccc(OC)cc3)cc2)cc1` [X:E:B04 bis(4-methoxy)], the inhibitory constant (Ki) on Aβ(1-40) (setting [7]) was above 10000 nM.

For the molecule `Oc1ccc(/C=C/c2ccc(/C=C/c3ccc(O)cc3)cc2)cc1` [X:E:B04], the Ki on Aβ(1-40) ([3H]CG binding to Aβ(1-40)) was 3100 nM.

Regarding `COC(=O)c1cccc(/C=C/c2ccc(/C=C/c3cccc(C(=O)OC)c3)cc2)c1` [X:E:B30 dimethylester], the Ki at Aβ(1-40) (setting [7]) was above 10000 nM.

As for `O=C(O)c1cccc(/C=C/c2ccc(/C=C/c3cccc(C(=O)O)c3)cc2)c1` [X:E:B30], the inhibition constant (Ki) at Aβ(1-40) ([3H]CG binding to Aβ(1-40)) was 135 nM.

For `O=C(O)c1cc(/C=C/c2ccc(/C=C/c3ccc(O)c(C(=O)O)c3)cc2)ccc1O` [X:E:B34 (X-34)], in data set [2], the “Oral rat LD50” value is around 15000 mg/kg. In addition, the solubility in water result in data set [3] is given as “moderately soluble”. Besides, the “state in carrier at 0.1%” value in data set [3] (0.1% of X34 (1 mg active per gm of carrier)) is “appears to remain in solution”. In addition, the “binding to Aβ plaques / aggregations” value in the data set on Aβ plaques is “selectively binds to β-amyloid plaques”. Also, at Aβ(1-40) ([3H]CG binding to Aβ(1-40)), the Ki is 18 nM.

`COC(=O)c1cc(/C=C/c2ccc(/C=C/c3ccc(OC)c(C(=O)OC)c3)cc2)ccc1OC` [X:E:B34 bis(4-methoxy) dimethyl ester]: the inhibition constant Ki on Aβ(1-40) (setting [7]) is above 10000 nM.

As for `COc1ccc(/C=C/c2ccc(/C=C/c3ccc(OC)c(C(=O)O)c3)cc2)cc1C(=O)O` [X:E:B34 bis(4-methoxy)], the inhibitory constant (Ki) at Aβ(1-40) ([3H]CG binding to Aβ(1-40)) was 47 nM.

Turning to `COC(=O)c1cc(/C=C/c2ccc(/C=C/c3ccc(O)c(C(=O)OC)c3)cc2)ccc1O` [X:E:B34 dimethylester], the inhibition constant Ki on Aβ(1-40) ([3H]CG binding to Aβ(1-40)) was 119 nM.

Values taken from patent US20090041666A1, “Ophthalmic formulations of Amyloid-beta contrast agent and methods of use thereof” (priority 2007, published 2009).
